Reference: patent publication US20090156648A1, “Preparations containing pyridoxine and alpha-hydroxyisocaproic acid (HICA)” (IOVATE T. & P. INC., priority 2007, published 2009)

Test: hygroscopicity and storage stability of the salt as described
Type: physicochemical
Details: crystalline powder

Substance: pyridoxine α-hydroxyisocaproate
- hygroscopic nature: non-hygroscopic
- stability in storage: stable in storage
